Reference: patent US9078917B2, “Extract of Phaleria macrocarpa as an antineoplastic, anti-inflammatory and antiangiogenic agent” (PT. Dexa Medica, priority 2008, dated 2015)

What was measured:
Assay type in all cases: cell-based
COX-1 mRNA expression = test: COX-1 RT-PCR in serum-free MDA-MB-231 cells; details: TPA alone versus control; FIG. 11
Experimental: (§1) MDA-MB-231 cells were cultured in supplemented medium, then the cells were incubated at 37° C., CO2 5%. MDA-MB-231 cells were cultured in 6-well plates. A day before treatment administration, medium was changed with serum-free medium for 24 hours. Treatment administration was done by administering various doses of Phaleria macrocarpa extract dissolved in organic solvent. RNA isolation was conducted using Trizol. The RNAs then were used in RT-PCR process using specific primer for each gene we used. RT-PCR reactions were performed in PCR machines with optimized conditions. RT-PCR products were analyzed using electrophoresis technique on agarose gel 2%, and quantified using Chemidoc.

cPLA2 mRNA expression = test: cPLA2 RT-PCR in serum-free MDA-MB-231 cells; details: TPA versus control, serum-free medium; FIG. 12
Experimental: as §1

VEGF-C mRNA expression = test: VEGF-C RT-PCR in serum-free MDA-MB-231 cells; details: TPA versus control, serum-free medium; FIG. 13
Experimental: as §1

CCCCCCCCCCCCCC(=O)O[C@@H]1[C@@H](C)[C@@]2(O)[C@@H](C=C(CO)C[C@]3(O)C(=O)C(C)=C[C@@H]23)[C@@H]2C(C)(C)[C@]12OC(C)=O [TPA]
mRNA expression of COX-1 (COX-1 mRNA expression): did not show any significant differences compared to control
cPLA2 mRNA expression (cPLA2 mRNA expression): increase in cPLA2 mRNA expression significantly
VEGF-C gene in mRNA level (VEGF-C mRNA expression): significant increase of VEGF-C gene
